This is an account of results in patent publication US9434711B2 (Janssen Pharmaceutica, NV, priority 2007, dated 2016).

In this assay the target is canine TRPM8 (Canis lupus familiaris, UniProt Q1A7N1). Briefly: In Vitro Canine TRPM8 Functional Assay (Ca2+ fluorescence, icilin activation). The note with it: for IC50: read-out: IC50; for inhibition at 0.5 µM: compound at 0.5 μM, read-out: % Inh @ 0.5; for inhibition at 0.2 µM: read-out: % Inh @ 0.2. The format is cell-based. The gist of the method:
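Cells (HEK293, stable canine TRPM8) are seeded 24 h before assay. They are then dye-loaded with Calcium 3 at 37 °C followed by room temperature. Compound is added and monitored for 5 min, after which icilin (~80% maximal response) is added.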

[1] abbreviates: HEK293 cells stably expressing canine TRPM8, icilin activation, eight-point dose-response.
Where [2] appears, read: canine TRPM8, icilin activation.
The mark [3] stands for this setting: compound at 0.2 μM, canine TRPM8, icilin activation.
Setting [4] is: 0.2 μM compound, HEK293 cells stably expressing canine TRPM8, icilin activation.
Where [5] appears, read: HEK293 cells stably expressing canine TRPM8, icilin activation, average of two or more determinations.

Read-outs that look alike come from different tables or passages of the source.

Chain of canine TRPM8 (Q1A7N1 1-1104): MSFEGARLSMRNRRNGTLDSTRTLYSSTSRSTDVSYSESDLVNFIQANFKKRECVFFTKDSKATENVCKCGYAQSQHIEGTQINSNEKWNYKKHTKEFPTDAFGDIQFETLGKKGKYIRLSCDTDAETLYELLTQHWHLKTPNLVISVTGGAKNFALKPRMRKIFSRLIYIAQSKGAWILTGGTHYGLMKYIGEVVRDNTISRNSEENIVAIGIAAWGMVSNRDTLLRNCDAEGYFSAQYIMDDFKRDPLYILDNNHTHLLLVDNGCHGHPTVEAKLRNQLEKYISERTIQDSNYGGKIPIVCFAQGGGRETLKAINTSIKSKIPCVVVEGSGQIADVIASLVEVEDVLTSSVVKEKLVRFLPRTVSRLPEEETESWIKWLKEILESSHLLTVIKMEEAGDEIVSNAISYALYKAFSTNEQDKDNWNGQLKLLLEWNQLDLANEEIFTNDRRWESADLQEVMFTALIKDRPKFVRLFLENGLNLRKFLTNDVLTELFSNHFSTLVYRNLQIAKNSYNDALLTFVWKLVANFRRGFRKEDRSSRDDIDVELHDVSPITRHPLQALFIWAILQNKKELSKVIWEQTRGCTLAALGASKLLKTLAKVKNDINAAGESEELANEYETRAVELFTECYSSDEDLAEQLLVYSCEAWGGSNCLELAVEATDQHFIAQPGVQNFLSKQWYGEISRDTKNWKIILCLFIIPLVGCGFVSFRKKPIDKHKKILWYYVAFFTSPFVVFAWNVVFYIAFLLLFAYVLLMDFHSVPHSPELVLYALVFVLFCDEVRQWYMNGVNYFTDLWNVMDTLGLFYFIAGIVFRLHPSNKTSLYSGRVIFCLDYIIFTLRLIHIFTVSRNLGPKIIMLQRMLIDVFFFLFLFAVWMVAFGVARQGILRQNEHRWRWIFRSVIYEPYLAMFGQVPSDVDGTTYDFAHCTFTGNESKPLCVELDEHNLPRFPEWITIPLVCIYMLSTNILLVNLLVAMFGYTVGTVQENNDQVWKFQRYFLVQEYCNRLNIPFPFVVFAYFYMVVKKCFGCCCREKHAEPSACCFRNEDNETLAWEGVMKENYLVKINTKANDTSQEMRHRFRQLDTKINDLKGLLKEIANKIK

Take `Cc1cccc(CN(c2sc3ccccc3c2Br)S(=O)(=O)c2ccccc2)c1` [Compound 179, N-(3-Bromo-benzo[b]thiophen-2-yl)-N-(3-methyl-benzyl)-benzenesulfonamide]: under setting [1], the IC50 (commonly the concentration needed to halve the response being measured) was found to be 3.6 nM. The inhibition at 0.5 µM under setting [2] came out at 98%.
For the compound `CCN(c1sc2ccccc2c1Br)S(=O)(=O)c1ccccc1` [Compound 247, N-(3-Bromo-benzo[b]thiophen-2-yl)-N-(ethyl)-benzenesulfonamide], the IC50 under setting [1] was found to be 25.5 nM. Also, under setting [3], the inhibition at 0.2 µM worked out at 99%.
For `O=S(=O)(Nc1ccc(S(=O)(=O)N(CCC2CC2)c2sc3ccccc3c2Cl)cc1)C1CC1` [Compound 718, N-(3-Chloro-benzo[b]thiophen-2-yl)-4-cyclopropanesulfonylamino-N-(2-cyclopropyl-ethyl)-benzenesulfonamide], in that order: 39 nM and 96%.
Regarding `O=C(O)c1cccc(S(=O)(=O)N(Cc2ccc(F)c(C(F)(F)F)c2)c2sc3ncccc3c2Cl)c1` [Compound 814, N-(3-Chloro-thieno[2,3-b]pyridin-2-yl)-N-(4-fluoro-3-trifluoromethyl-benzyl)-3-carboxy-benzenesulfonamide], the inhibition at 0.2 µM under setting [4] is 80%. Under setting [5], the IC50 came to 138 nM.
For `CCS(=O)(=O)N(Cc1cc(F)c(F)c(OC)c1F)c1sc2ccccc2c1C(C)(C)O` [Compound 802, N-[3-(1-Hydroxy-1-methyl-ethyl)-benzo[b]thiophen-2-yl]-N-(2,4,5-trifluoro-3-methoxy-benzyl)-ethanesulfonamide], in that order: 101% and 8 nM.
Consider `Nc1ccc(S(=O)(=O)N(CCCCC(F)(F)F)c2sc3ccccc3c2Br)cc1` [Compound 668, 4-Amino-N-(3-bromo-benzo[b]thiophen-2-yl)-N-(5,5,5-trifluoro-pentyl)-benzenesulfonamide], for which, under setting [1], the half-maximal inhibitory concentration (IC50) stood at 5 nM. Moreover, under setting [3], the inhibition at 0.2 µM stood at 103%.
Turning to `CCS(=O)(=O)N(Cc1ccc(F)c(C(F)(F)F)c1)c1sc2ccccc2c1CN1CCCC1` [Compound 349, N-(4-Fluoro-3-trifluoromethyl-benzyl)-N-(3-pyrrolidin-1-yl-methyl-benzo[b]thiophen-2-yl)-ethanesulfonamide], the “% Inh @ 0.2 (μM)” value under setting [3] is recorded as 42%.
For `CCS(=O)(=O)N(CCOC)c1sc2ccccc2c1C` [Compound 105, N-(2-Methoxy-ethyl)-N-(3-methyl-benzo[b]thiophen-2-yl)-ethanesulfonamide], the inhibition at 0.2 µM under setting [3] came out at 20%.
For `O=S(=O)(c1ccccc1)N(CCCF)c1cc2ccccc2s1` [Compound 817, N-(Benzo[b]thiophen-2-yl)-N-(3-fluoro-propyl)-benzenesulfonamide], the inhibition at 0.2 µM under setting [4] was determined as 80%. The IC50 under setting [5] is 73 nM.
For the compound `COC(=O)c1ccc(S(=O)(=O)N(Cc2ccc(F)c(C(F)(F)F)c2)c2sc3ccccc3c2C(C)=O)cc1` [Compound 313, N-(3-Acetyl-benzo[b]thiophen-2-yl)-N-(4-fluoro-3-trifluoromethyl-benzyl)-4-carbomethoxy-benzenesulfonamide], the IC50 under setting [1] came to 21 nM. For the same compound, the inhibition at 0.2 µM under setting [3] came out at 102%.
As to `O=S(=O)(c1ccccc1)N(Cc1ccc(F)c(C(F)(F)F)c1)c1cc2ccccc2s1` [Compound 61, N-(Benzo[b]thiophen-2-yl)-N-(4-fluoro-3-trifluoromethyl-benzyl)-benzenesulfonamide], the IC50 under setting [1] was 52.4 nM. Further, under setting [2], the inhibition at 0.5 µM was found to be 95%.
With `CCCCN(c1sc2ccccc2c1Cl)S(=O)(=O)NC` [Compound 553, N-(3-Chloro-benzo[b]thiophen-2-yl)-N-(butyl)-N′-methyl-sulfamide], the inhibition at 0.2 µM under setting [3] came out at 38.7%.
For the compound `Cc1c(N(CCC2CC2)S(=O)(=O)c2ccc(N3CCOCC3)cc2)sc2ccccc12` [Compound 741, N-(3-Methyl-benzo[b]thiophen-2-yl)-N-(cyclopropyl-ethyl)-4-morpholino-benzenesulfonamide], the IC50 under setting [1] was 17.3 nM. Moreover, under setting [3], the inhibition at 0.2 µM was 101%.
Take `Cc1c(N(CCC2CC2)S(=O)(=O)c2ccc(N(C)C)cc2)sc2ccccc12` [Compound 738, N-(3-Methyl-benzo[b]thiophen-2-yl)-N-(cyclopropyl-ethyl)-4-dimethylamino-benzenesulfonamide]: under setting [1], the IC50 was 8.9 nM. Under setting [3], the inhibition at 0.2 µM stood at 102%.
The corresponding values for `CCS(=O)(=O)N(CCC(F)(F)F)c1sc2ccccc2c1C` [Compound 106, N-(3-Methyl-benzo[b]thiophen-2-yl)-N-(3,3,3-trifluoro-propyl)-ethanesulfonamide] are 19 nM and 93%.
With `Cc1c(N(Cc2ccc(OC(F)(F)F)cc2)S(=O)(=O)c2ccc(N(C)C)cc2)sc2ccccc12` [Compound 799, N-(3-Methyl-benzo[b]thiophen-2-yl)-N-(4-trifluoromethoxy-benzyl)-4-dimethylamino-benzenesulfonamide], the inhibition at 0.2 µM under setting [4] came out at 102%. Further, under setting [5], the 50% inhibitory concentration (IC50) was 3.9 nM.
`CCCCN(c1sc2ccccc2c1C(C)(C)O)S(=O)(=O)c1ccc(Br)cc1` [Compound 506, N-(Butyl)-N-(3-(1-hydroxy-1-methyl-ethyl)-benzo[b]thiophen-2-yl)-4-bromo-benzenesulfonamide]: the IC50 under setting [1] turned out to be 31 nM. Moreover, the inhibition at 0.2 µM under setting [3] came out at 100%.
Regarding `O=S(=O)(c1ccc(Cl)nc1)N(Cc1ccc(F)c(C(F)(F)F)c1)c1sc2ccccc2c1Cl` [Compound 338], under setting [3], the inhibition at 0.2 µM came to 95%.
With `CCS(=O)(=O)N(Cc1ccc(F)c(C(F)(F)F)c1)c1sc2ccccc2c1C(C)=O` [Compound 205, N-(3-Acetyl-benzo[b]thiophen-2-yl)-N-(4-fluoro-3-trifluoromethyl-benzyl)-ethanesulfonamide], the IC50 under setting [1] was determined as 3 nM. The inhibition at 0.5 µM under setting [2] came to 96%.
Turning to `O=c1[nH]c(-c2ccc(S(=O)(=O)N(Cc3ccc(F)c(C(F)(F)F)c3)c3sc4ccccc4c3Cl)cc2)no1` [Compound 512, N-(3-Chloro-benzo[b]thiophen-2-yl)-N-(4-fluoro-3-trifluoromethyl-benzyl)-4-(5-oxo-4,5-dihydro-[1,2,4]oxadiazol-3-yl)-benzenesulfonamide], the IC50 under setting [1] is 4 nM. For the same compound, the inhibition at 0.2 µM under setting [3] is 102%.
The corresponding values for `COC(=O)c1ccc(S(=O)(=O)N(Cc2ccc(F)c(C(F)(F)F)c2)c2sc3ccccc3c2Br)cc1` [Compound 192, N-(3-Bromo-benzo[b]thiophen-2-yl)-N-(4-fluoro-3-trifluoromethyl-benzyl)-4-carbomethoxy-benzenesulfonamide] are 60 nM and 82%.
For `CCS(=O)(=O)N(Cc1ccc(F)c(C(F)(F)F)c1)c1sc2ccccc2c1CO` [Compound 217, N-(4-Fluoro-3-trifluoromethyl-benzyl)-N-(3-hydroxymethyl-benzo[b]thiophen-2-yl)-ethanesulfonamide], in that order: 3 nM and 88%.
As to `Cc1c(N(CCC(F)(F)F)S(=O)(=O)c2ccc(C3=NOS(=O)N3)cc2)sc2ccccc12` (stereo not shown) [Compound 598, N-(3-Methyl-benzo[b]thiophen-2-yl)-N-(3,3,3-trifluoro-propyl)-4-(3H-[1,2,3,5]oxathiadiazole-2-oxide)-benzenesulfonamide], the IC50 under setting [1] was 30.7 nM. Under setting [3], the “% Inh @ 0.2 (μM)” value was 101%.
For `COC(=O)c1ccccc1S(=O)(=O)N(Cc1ccc(F)c(C(F)(F)F)c1)c1sc2ccccc2c1Br` [Compound 197, N-(3-Bromo-benzo[b]thiophen-2-yl)-N-(4-fluoro-3-trifluoromethyl-benzyl)-2-carbomethoxy-benzenesulfonamide], the IC50 under setting [1] is 7 nM. The inhibition at 0.2 µM under setting [3] came to 99%.
`CCCCN(c1cc2ccccc2s1)S(=O)(=O)c1ccc(N2CCN(C)CC2)cc1` [Compound 447, N-(Benzo[b]thiophen-2-yl)-N-(butyl)-4-(4-methyl-piperazin-1-yl)-benzenesulfonamide]: under setting [3], the inhibition at 0.2 µM was 19%.
On to `Cc1c(N(Cc2ccc(F)c(C(F)(F)F)c2)S(=O)(=O)c2cnc(Cl)c(Cl)c2)sc2ccccc12` [Compound 331, N-(3-Methyl-benzo[b]thiophen-2-yl)-N-(4-fluoro-3-trifluoromethyl-benzyl)-5,6-dichloro-pyridin-3-ylsulfonamide], for which the IC50 under setting [1] came out at 90 nM. In addition, the inhibition at 0.2 µM under setting [3] amounted to 71%.
Consider `Cc1c(N(Cc2cccc(OC(F)(F)F)c2)S(=O)(=O)CCC(=O)O)sc2ccccc12` [Compound 762, N-(3-Methyl-benzo[b]thiophen-2-yl)-N-(3-trifluoromethoxy-benzyl)-2-carboxy-ethanesulfonamide], for which the half-inhibitory concentration (IC50) under setting [1] was 25.3 nM. In addition, under setting [3], the inhibition at 0.2 µM came out at 101%.
As to `CC(=O)c1c(N(Cc2ccc(OC(F)(F)F)cc2)S(=O)(=O)c2ccc(C#N)cc2)sc2ccccc12` [Compound 772, N-(3-Acetyl-benzo[b]thiophen-2-yl)-N-(4-trifluoromethoxy-benzyl)-4-cyano-benzenesulfonamide], the 50% inhibitory concentration (IC50) under setting [1] was determined as 5.7 nM. Further, under setting [3], the inhibition at 0.2 µM is 95%.
For `CC(=O)c1c(N(Cc2ccccc2)S(=O)(=O)c2ccc(Br)cc2)sc2ccccc12` [Compound 732, N-(3-Acetyl-benzo[b]thiophen-2-yl)-N-(benzyl)-4-bromobenzenesulfonamide], in that order: 13.3 nM and 100%.
The corresponding values for `Cc1c(N(CCC2CC2)S(=O)(=O)c2nc3ccccc3n2C)sc2ccccc12` [Compound 745, N-(Cyclopropyl-ethyl)-N-(3-methyl-benzo[b]thiophen-2-yl)-1-methyl-1H-benzimidazole-2-sulfonamide] are 84.9 nM and 74%.
